By inhibition is commonly meant the change of the read-out against control, counted positive when it falls.

In one data set the test system is TZM-bl cell line. In kind it is cell-based. The note with it: human, 1 μM. The procedure, abridged: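 Read-out is luciferase from an integrated HIV-1 LTR reporter in TZM-bl cells, 48 h after HIV-1NL4-3 infection in the presence of 1 μM compound. Scale set by DMSO-treated wild-type-infected cells (0%) and Nef-defective virus (100% Nef-dependent effect). Cell Titer Blue measures cytotoxicity without virus.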

A further data set has as its target T1, HIV-1 Nef SF2 (Human immunodeficiency virus type 1 group M subtype B, UniProt P03407).
T1 construct: made in house
The experiment in a line: biochemical. In kind it is binding. The note with it: two-step induced-fit model, Reichert SPR, read-out: Reichert SPR Nef SF2 (M) two-step fitting.

In the next data set the test system is HIV-1NL4-3. In words: HIV-1 infectivity assay in TZM-bl reporter cell line (LTR-luciferase, 48 h). The class given is cell-based. The note with it: Human immunodeficiency virus 1, TZM-bl. The procedure, abridged:
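Nef-dependent infectivity in TZM-bl cells: HIV-1NL4-3 infection with 1 μM compound, luciferase read at 48 h, normalized against DMSO wild-type and Nef-defective controls. Compound cytotoxicity in uninfected cells measured by Cell Titer Blue.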

A further data set concerns the target HIV-1 NefNL4-3 (Human immunodeficiency virus type 1 group M subtype B, UniProt P03406, A33V/T15A/T51N/V11I). The experiment in a line: Surface plasmon resonance binding to recombinant full-length Nef (NL4-3). The note with it: for T, minutes (residence time): 2-step induced fit, T = 1/koff2; for RU30/RUNef (extent of binding): response units at 30 μM relative to Nef immobilized on the SPR chip. A general note: SPR reads the build-up and loss of mass on a sensor chip optically.

For data set [1], the target named is Nef from SIV (strain mac239) (Simian immunodeficiency virus, UniProt Q5QGG3). The experiment in a line: biochemical.
Method: Also shown are SPR data recorded on a Reichert 4-channel SPR instrument. […] Recombinant Nef is immobilized on the biosensor surface, and each compound is injected and association/dissociation kinetics are recorded. The resulting data for the 3 isoforms are each best-fit using both a two-site model and a two-step, induced-fit model. Dissociation constants (KD), calculated from the kinetic association and dissociation constants from all three isoforms, are shown in columns 6-7. Data were fit using three regimes and the resulting KD: from each model are shown in the Table: 1:1 Langmuir fit; 2-site fit, which yields low and high affinity components; and a 2-step induced fit model.
Where [2] appears, read: 1.0 μM, TZM-bl reporter cell line, Table 4, read-out: % Infectivity Inhibition.
The mark [3] stands for this setting: 1 μM, TZM-bl, normalized: DMSO wild-type HIV-1 = 0%, Nef-defective HIV-1 = 100%, read-out: HIV-1 Infectivity % Inhibition norm. to Δ-Nef @ 1 μM.
Setting [4] is: 48 h, Table 1, TZM-bl cells, 1 μM, 48 h, 100% = Nef-defective HIV-1, read-out: HIV-1 Infectivity % Inhibition Norm. to Δ-Nef @ 1 μM.
Where [5] appears, read: KD, M, Table 4, SPR fit 2-step induced fit, KD = koff/kon × koff2/(koff2 + kon2).
The mark [6] stands for this setting: Nef NL4-3 Binding, SPR 2-state fitting KD, Table 1, 2-step induced-fit model.
Where [7] appears, read: Reichert SPR Nef NL43 (M) two-step fitting, KD, two-step induced-fit model, Reichert SPR, Table 3.
[8] abbreviates: read-out: Nef NL4-3 Binding, SPR 1:1 or 2-site fitting KD2, Table 1, 2-site fit, second component.

Like-named read-outs stand apart in the source and are kept apart here.

`Oc1c(CC2CCOCC2)c(-c2ccc(F)cc2)nn1-c1nc2ccccc2[nH]1` [Compound I-151, 1-(1H-1,3-benzodiazol-2-yl)-3-(4-fluorophenyl)-4-[(oxan-4-yl)methyl]-1H-pyrazol-5-ol]: the “% Cell Viability” value in the data set with TZM-bl cell line is reported as 83.0%. Also, the “Percent Viability @ 1 μM (TZM-bl cells)” value in the data set with TZM-bl cell line amounted to 83.0%. Moreover, the Kd on HIV-1 Nef SF2 was found to be 3.5e-06 M; at HIV-1 NefNL4-3, 5.34e-07 M; on HIV-1 NefNL4-3 (setting [5]) it was 6.26e-06 M; at HIV-1 NefNL4-3 (setting [6]), 5.65e-06 M; on HIV-1 NefNL4-3 (setting [7]), 5.65e-06 M; at HIV-1 NefNL4-3 (setting [8]), 4.65e-05 M. In addition, the Kd in data set [1] was determined as 1.46 µM. Further, the inhibition at 1 µM with HIV-1NL4-3 (setting [2]) worked out at 100%; with HIV-1NL4-3 (setting [3]), 106%; in the data set on HIV-1NL4-3 (setting [4]) it was 106%. Also, the “T, minutes (residence time)” value on HIV-1 NefNL4-3 (Table 4) is given as 4.68E + 00 minutes. Besides, the “RU30/RUNef (extent of binding)” value on HIV-1 NefNL4-3 is 8.50E- 03.
As for `Oc1c(CCc2ccc(F)cc2)c(C2CC2)nn1-c1nc2cc(Cl)ccc2[nH]1` [Compound I-170, 1-(5-chloro-1H-1,3-benzodiazol-2-yl)-3-cyclopropyl-4-[2-(4-fluorophenyl)ethyl]-1H-pyrazol-5-ol], in the data set on TZM-bl cell line, the “% Cell Viability” value came to 98.8%. In addition, the “Percent Viability @ 1 μM (TZM-bl cells)” value in the data set with TZM-bl cell line amounted to 98.8%. Besides, the Kd was determined as 4.9e-07 M on HIV-1 Nef SF2; 1.25e-08 M on HIV-1 NefNL4-3 (setting [5]); 1.25e-08 M on HIV-1 NefNL4-3 (setting [6]); 1.25e-08 M on HIV-1 NefNL4-3 (setting [7]); 1.99e-06 M on HIV-1 NefNL4-3 (setting [8]); 0.00287 µM in data set [1]. For the same molecule, the inhibition at 1 µM in the data set with HIV-1NL4-3 (setting [2]), in the data set with HIV-1NL4-3 (setting [3]) and in the data set on HIV-1NL4-3 (setting [4]) was 67.1% throughout. In addition, at HIV-1 NefNL4-3 (Table 4), the “T, minutes (residence time)” value was found to be 8.01E + 02 minutes. Also, the “RU30/RUNef (extent of binding)” value at HIV-1 NefNL4-3 is reported as 2.34E- 02.
For `CC(C)(C)OC(=O)N1CCC(CCc2c(-c3cccc(S(C)(=O)=O)c3)nn(-c3nc4ccccc4[nH]3)c2O)CC1` [Compound I-210, tert-butyl 4-{2-[1-(1H-1,3-benzodiazol-2-yl)-5-hydroxy-3-(3-methanesulfonylphenyl)-1H-pyrazol-4-yl]ethyl}piperidine-1-carboxylate], in the data set on TZM-bl cell line, the “% Cell Viability” value turned out to be 83.7%. The “Percent Viability @ 1 μM (TZM-bl cells)” value in the data set with TZM-bl cell line came to 83.7%. For the same molecule, the Kd at HIV-1 Nef SF2 stood at 4.31e-06 M; on HIV-1 NefNL4-3, 8.86e-07 M; at HIV-1 NefNL4-3 (setting [5]), 4.56e-06 M; at HIV-1 NefNL4-3 (setting [6]), 4.56e-06 M; at HIV-1 NefNL4-3 (setting [7]) it was 4.56e-06 M; at HIV-1 NefNL4-3 (setting [8]), 8.12e-06 M. In data set [1], this molecule registered a Kd of 0.709 µM. Also, the inhibition at 1 µM in the data set on HIV-1NL4-3 (setting [2]), in the data set on HIV-1NL4-3 (setting [3]) and in the data set on HIV-1NL4-3 (setting [4]) was 95.4% throughout. In addition, at HIV-1 NefNL4-3 (Table 4), the “T, minutes (residence time)” value came out at 1.06E + 01 minutes. Besides, the “RU30/RUNef (extent of binding)” value at HIV-1 NefNL4-3 was determined as 5.18E- 03.
Consider `Oc1c(CCc2ccc(F)cc2)c(C2CC2)nn1-c1nc2cccnc2[nH]1` [Compound I-308, 3-cyclopropyl-4-[2-(4-fluorophenyl)ethyl]-1-{3H-imidazo[4,5-b]pyridin-2-yl}-1H-pyrazol-5-ol], for which the “% Cell Viability” value in the data set with TZM-bl cell line is listed as 100%. Besides, in the data set with TZM-bl cell line, the “Percent Viability @ 1 μM (TZM-bl cells)” value is 100.1%. In addition, the Kd at HIV-1 Nef SF2 was determined as 2.91e-06 M; at HIV-1 NefNL4-3, 9.41e-07 M; on HIV-1 NefNL4-3 (setting [5]), 4.06e-06 M; on HIV-1 NefNL4-3 (Nef NL4-3 Binding, SPR 1:1 or 2-site fitting KD2, Table 1, 2-site fit, second component), 2.21e-06 M; at HIV-1 NefNL4-3 (setting [6]), 4.06e-06 M; on HIV-1 NefNL4-3 (setting [7]) it was 4.06e-06 M. The molecule also had a Kd in data set [1] of 3.85 µM. Also, the inhibition at 1 µM in the data set on HIV-1NL4-3 (setting [2]), in the data set on HIV-1NL4-3 (setting [3]) and with HIV-1NL4-3 (setting [4]) was 61.4% each time. Moreover, on HIV-1 NefNL4-3 (Table 4), the “T, minutes (residence time)” value is recorded as 5.81E + 00 minutes. The “RU30/RUNef (extent of binding)” value at HIV-1 NefNL4-3 was 6.06E- 03.
Turning to `CC(C)(O)C(=O)N1CCC(CCc2c(C3CC3)nn(-c3nc4cc(Cl)ccc4[nH]3)c2O)CC1` [Compound I-712, 1-(4-{2-[1-(5-chloro-1H-1,3-benzodiazol-2-yl)-3-cyclopropyl-5-hydroxy-1H-pyrazol-4-yl]ethyl}piperidin-1-yl)-2-hydroxy-2-methylpropan-1-one], the “% Cell Viability” value in the data set on TZM-bl cell line is listed as 100%. Moreover, the “Percent Viability @ 1 μM (TZM-bl cells)” value with TZM-bl cell line came out at 104.4%. Also, the Kd was 5.9e-09 M on HIV-1 Nef SF2; 6.85e-08 M on HIV-1 NefNL4-3; 1.99e-08 M at HIV-1 NefNL4-3 (setting [5]); 1.99e-08 M at HIV-1 NefNL4-3 (setting [6]); 1.99e-08 M on HIV-1 NefNL4-3 (setting [7]); 1.03e-05 M on HIV-1 NefNL4-3 (setting [8]). Also, the Kd in data set [1] is 0.00219 µM. Also, the results for the inhibition at 1 µM with HIV-1NL4-3 (setting [2]), in the data set with HIV-1NL4-3 (setting [3]) and in the data set on HIV-1NL4-3 (setting [4]) were 52.3%, 52.6% and 52.6%, respectively. Also, the “T, minutes (residence time)” value at HIV-1 NefNL4-3 (Table 4) was 7.54E + 02 minutes. At HIV-1 NefNL4-3, the “RU30/RUNef (extent of binding)” value was 1.07E- 02.
Turning to `CC(=O)N1CCC(Cc2c(-c3ccc(C(F)(F)F)cc3)nn(-c3nc4ccccc4[nH]3)c2O)CC1` [Compound I-720, 1-(4-{[1-(1H-1,3-benzodiazol-2-yl)-5-hydroxy-3-[4-(trifluoromethyl)phenyl]-1H-pyrazol-4-yl]methyl}piperidin-1-yl)ethan-1-one], the “% Cell Viability” value in the data set with TZM-bl cell line worked out at 71.4%. The “Percent Viability @ 1 μM (TZM-bl cells)” value in the data set on TZM-bl cell line worked out at 71.4%. The inhibition at 1 µM in the data set on HIV-1NL4-3 (setting [2]), with HIV-1NL4-3 (setting [3]) and in the data set on HIV-1NL4-3 (setting [4]) was 92.2% in each case. Further, the Kd on HIV-1 NefNL4-3 is 1.19e-06 M; on HIV-1 NefNL4-3 (setting [5]), 1.81e-06 M; on HIV-1 NefNL4-3 (setting [6]) it was 1.81e-06 M; on HIV-1 NefNL4-3 (setting [7]), 1.81e-06 M; in data set [1], 0.0218 µM. The “T, minutes (residence time)” value at HIV-1 NefNL4-3 (Table 4) came out at 1.32E + 00 minutes. The “RU30/RUNef (extent of binding)” value at HIV-1 NefNL4-3 came to 2.80E- 03.
Consider `CC(C)OC(=O)N1CCC(c2nn(-c3nc4ccccc4[nH]3)c(O)c2CCC2CCOCC2)CC1` [Compound I-722, propan-2-yl 4-[1-(1H-1,3-benzodiazol-2-yl)-5-hydroxy-4-[2-(oxan-4-yl)ethyl]-1H-pyrazol-3-yl]piperidine-1-carboxylate], for which the “Percent Viability @ 1 μM (TZM-bl cells)” value in the data set with TZM-bl cell line came out at 86.8%. Besides, the Kd was found to be 1.28e-07 M at HIV-1 Nef SF2; 2.24e-06 M on HIV-1 NefNL4-3; 5.49e-06 M on HIV-1 NefNL4-3 (setting [6]); 5.49e-06 M on HIV-1 NefNL4-3 (setting [7]); 7.2e-06 M on HIV-1 NefNL4-3 (setting [8]); 4.9 µM in data set [1]. Besides, the inhibition at 1 µM in the data set with HIV-1NL4-3 (setting [3]) and with HIV-1NL4-3 (setting [4]) was 53.4% each time.
Regarding `CN(C)S(=O)(=O)N1CCC(c2nn(-c3nc4ccccc4[nH]3)c(O)c2CCc2ccc(F)cc2)CC1` [Compound I-746, 4-[1-(1H-1,3-benzodiazo1-2-y1)-4-[2-(4-fluorophenyl)ethyl]-5-hydroxy-1H-pyrazol-3-yl]-N,N-dimethylpiperidine-1-sulfonamide], the “Percent Viability @ 1 μM (TZM-bl cells)” value in the data set with TZM-bl cell line came to 101.6%. For the same molecule, the Kd at HIV-1 Nef SF2 came to 6.84e-06 M; at HIV-1 NefNL4-3, 7.96e-07 M; in data set [1], 0.0493 µM. In addition, the inhibition at 1 µM with HIV-1NL4-3 (setting [3]) and in the data set with HIV-1NL4-3 (setting [4]) was 194% each time.

The record behind these values is patent publication US20220380341A1, “INHIBITORS OF HIV-1 NEF FOR THE TREATMENT OF HIV DISEASE” (priority 2018, published 2022).
